Measured values: PMC6934184, “Selective DNA-PKcs inhibition extends the therapeutic index of localized radiotherapy and chemotherapy” (The Journal of Clinical Investigation, 2019)

Target: T1, ACVR1 (ALK2) (Homo sapiens, UniProt Q04771)
T1 construct: purchased Thermo Fisher Scientific (Life Technologies) SelectScreen
Experiment: SelectScreen LanthaScreen
Format: binding
Settings: read-out: % displacement
Method in brief: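 NU5455 was profiled across the SelectScreen Broad panel of kinase activity and binding assays. Z'LYTE reactions such as CSF1R ran at apparent Km ATP, while the Adapta CAMK1 assay used ATP listed as 10. Values are given as percent.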

T1 sequence (Q04771 21-509): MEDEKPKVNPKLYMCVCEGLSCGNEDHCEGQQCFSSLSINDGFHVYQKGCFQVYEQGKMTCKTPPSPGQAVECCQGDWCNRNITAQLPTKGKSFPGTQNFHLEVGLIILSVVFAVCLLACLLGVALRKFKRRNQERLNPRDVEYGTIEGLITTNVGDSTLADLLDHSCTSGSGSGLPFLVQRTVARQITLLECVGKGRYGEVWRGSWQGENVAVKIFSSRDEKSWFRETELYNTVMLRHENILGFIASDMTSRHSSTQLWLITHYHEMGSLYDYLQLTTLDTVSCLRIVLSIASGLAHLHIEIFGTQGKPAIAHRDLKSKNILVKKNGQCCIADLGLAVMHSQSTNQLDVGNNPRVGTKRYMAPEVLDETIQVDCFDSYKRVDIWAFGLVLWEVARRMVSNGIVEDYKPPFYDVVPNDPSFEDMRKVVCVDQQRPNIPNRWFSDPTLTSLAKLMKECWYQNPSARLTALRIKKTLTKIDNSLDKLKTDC

## CN(C(=O)CN1CCOCC1)c1ccc2sc3c(-c4cccc5c(=O)cc(N6CC7CCC(C6)O7)oc45)cccc3c2c1 [NU5455]
  inhibition at 1 µM: 0.7%
